Source: patent US20240398817A1, “CARDIO- AND RENOSAFE ANTIDIABETIC THERAPY” (priority 2018, published 2024)

Test system: patients with type 2 diabetes at high vascular risk
Assay: Cardiovascular and Renal Outcomes Trial: linagliptin 5 mg once daily vs placebo on top of standard of care
Assay type: in vivo
Settings: for Hazard ratio for hospitalised heart failure: vs placebo
Protocol: The effect of linagliptin on cardiovascular risk in adult patients with type 2 diabetes mellitus and with increased CV risk evidenced by a history of established macrovascular or renal disease (e.g. as defined herein) was evaluated in a multi-center, multi-national, randomized, double-blind parallel group trial. The trial compared the risk of experiencing a major adverse cardiovascular event (MACE) between linagliptin and placebo when these were added to and used concomitantly with standard of care treatments for diabetes (HbA1c), cardiovascular risk factors and renal disease.
The primary endpoint in this trial was the time to first occurrence of three point (3P) MACE. A major adverse cardiac event was defined as a cardiovascular death or a nonfatal myocardial infarction (MI) or a nonfatal stroke. The statistical analysis plan tested for non-inferiority for the occurrence of (3P) MACE. […] The secondary endpoint was a renal composite, defined as renal death or sustained end stage renal disease or sustained decrease of 40% or more in eGFR.
Type 2 diabetes patient with insufficient glycemic control (naïve or pre-treated with any antidiabetic background medication, excluding treatment with GLP-1 receptor agonists, DPP-4inhibitors or SGLT-2 inhibitors if ≥consecutive 7 days, e.g. having HbA1c 6.5-10%), and high risk of cardiovascular events, e.g. defined by: • albuminuria (micro or macro) and previous macrovascular disease: e.g. defined according to Condition I as indicated below; • and/or • impaired renal function: e.g. as defined according to Condition II as indicated below;
Background and aims: People with type 2 diabetes (T2D) are at increased risk for hospitalization for heart failure (hHF), particularly in the setting of concomitant cardiovascular (CV) and/or kidney disease. […] Here we present analyses of HF outcomes with the DPP-4 inhibitor linagliptin (LINA) vs. placebo (PBO) from a Cardiovascular and Renal Outcomes Trial assessing cardiovascular safety and renal microvascular outcome in patients with type 2 diabetes at high vascular risk, a large CV outcomes trial that enrolled participants with T2D at high risk for hHF due to concomitant CV and/or chronic kidney disease. Materials and methods: People with T2D and concomitant CV and/or kidney disease were randomized to receive LINA 5 mg, or PBO once daily (1:1), on top of standard of care. All hHF, CV outcomes, and deaths were centrally adjudicated, with individual and composite HF-related outcomes analyses comparing LINA vs. placebo. Investigator-reported HF-related adverse events, whether or not confirmed by adjudication, were also analyzed. A Cox proportional hazards model adjusting for region and history of HF was used for analyses of first events. Recurrent hHF events were analyzed using a negative binomial model.
Methods: The present Cardiovascular and Renal Outcomes Trial randomized people with T2D and i) concomitant CV disease with UACR >30 mg/g or ii) prevalent CKD (i.e. GFR <45 ml/min/1.73m2 and/or UACR >200 mg/g) to receive the DPP-4 inhibitor linagliptin (5 mg) or placebo once daily in a double-blind fashion. The primary CV endpoint was 3P-MACE, with a key secondary kidney endpoint (adjudicated ESKD, renal death, or sustained ≥40% decrease in eGFR from baseline) and other renal outcomes (including albuminuria and eGFR slope) also assessed. Subgroups were assessed by baseline kidney function (eGFR ≥/<45 ml/min/1.73m2and eGFR ≥/<30, 45 or 60 ml/min/1.73m2).
Adults with type 2 diabetes, HbA1c 6.5-10.0% inclusive, and high CV risk were eligible for inclusion. […] Macrovascular disease eligibility criteria was based on documented and confirmed history of myocardial infarction, coronary artery disease, stroke, carotid artery disease, or peripheral artery disease. Participants with end-stage kidney disease (ESKD), defined as eGFR <15 or requiring maintenance dialysis, were excluded.

[1] = ACE inhibitors/angiotensin receptor blockers No
[2] = ACE inhibitors/angiotensin receptor blockers Yes
[3] = Albuminuria and previous macrovascular disease plus eGFR 45-75 with an UACR >200 mg/g
[4] = Albuminuria and previous macrovascular disease plus renal impairment (eGFR 15-<45 with any UACR)
[5] = Albuminuria and previous macrovascular disease without eGFR >45 mL/min/1.73 m2
[6] = Angiotensin-converting enzyme inhibitors No
[7] = Angiotensin-converting enzyme inhibitors Yes
[8] = Angiotensin-converting enzyme inhibitors/angiotensin receptor blockers No
[9] = Angiotensin-converting enzyme inhibitors/angiotensin receptor blockers Yes
[10] = Blood pressure control SBP <140 mmHg
[11] = Blood pressure control SBP <160 mmHg
[12] = Blood pressure control SBP ≥140 mmHg
[13] = Blood pressure control SBP ≥160 mmHg

CC#CCn1c(N2CCC[C@@H](N)C2)nc2c1c(=O)n(Cc1nc(C)c3ccccc3n1)c(=O)n2C [Linagliptin, 1-[(4-methyl-quinazolin-2-yl)methyl]-3-methyl-7-(2-butyn-1-yl)-8-(3-(R)-amino-piperidin-1-yl)-xanthine]
3-point MACE: hazard ratio vs placebo [1]: 0.93 | 3-point MACE: patients with event/patients analyzed [1]: 89/634 | Key secondary kidney outcome: hazard ratio vs placebo [1]: 0.96 | Key secondary kidney outcome: patients with event/patients analyzed [1]: 62/634 | 3-point MACE: hazard ratio vs placebo [2]: 1.06 | 3-point MACE: patients with event/patients analyzed [2]: 345/2860 | Key secondary kidney outcome: hazard ratio vs placebo [2]: 1.07 | Key secondary kidney outcome: patients with event/patients analyzed [2]: 265/2860 | 3-point MACE: hazard ratio vs placebo (Age <65 years): 1.11 | 3-point MACE: patients with event/patients analyzed (Age <65 years): 154/1467 | Key secondary kidney outcome: hazard ratio vs placebo (Age <65 years): 1.05 | Key secondary kidney outcome: patients with event/patients analyzed (Age <65 years): 180/1467 | Patients with event/patients analysed, hospitalised heart failure (Age <65 years): 67/1467 | Hazard ratio for hospitalised heart failure (Age <65 years): 0.87 | 3-point MACE: hazard ratio vs placebo (Age ≥65 years): 0.97 | 3-point MACE: patients with event/patients analyzed (Age ≥65 years): 280/2027 | Key secondary kidney outcome: hazard ratio vs placebo (Age ≥65 years): 1.05 | Key secondary kidney outcome: patients with event/patients analyzed (Age ≥65 years): 147/2027 | Patients with event/patients analysed, hospitalised heart failure (Age ≥65 years): 142/2027 | Hazard ratio for hospitalised heart failure (Age ≥65 years): 0.91 | 3-point MACE: hazard ratio vs placebo [3]: 0.88 | 3-point MACE: patients with event/patients analyzed [3]: 119/647 | Key secondary kidney outcome: hazard ratio vs placebo [3]: 0.99 | Key secondary kidney outcome: patients with event/patients analyzed [3]: 74/647 | 3-point MACE: hazard ratio vs placebo [4]: 1.12 | 3-point MACE: patients with event/patients analyzed [4]: 195/1462 | Key secondary kidney outcome: hazard ratio vs placebo [4]: 1.01 | Key secondary kidney outcome: patients with event/patients analyzed [4]: 215/1462 | 3-point MACE: hazard ratio vs placebo [5]: 0.97 | Key secondary kidney outcome: hazard ratio vs placebo [5]: 1.22 | 3-point MACE: patients with event/patients analyzed (All patients): 434/3493 | Key secondary kidney outcome: patients with event/patients analyzed (All patients): 327/3493 | Patients with event/patients analysed, hospitalised heart failure (All patients): 209/3494 | Hazard ratio for hospitalised heart failure (All patients): 0.90 | Patients with event/patients analysed, hospitalised heart failure [6]: 132/1920 | Hazard ratio for hospitalised heart failure [6]: 1.02 | Patients with event/patients analysed, hospitalised heart failure [7]: 77/1574 | Hazard ratio for hospitalised heart failure [7]: 0.75 | Patients with event/patients analysed, hospitalised heart failure [8]: 48/634 | Hazard ratio for hospitalised heart failure [8]: 0.84 | Patients with event/patients analysed, hospitalised heart failure [9]: 161/2860 | Hazard ratio for hospitalised heart failure [9]: 0.92 | 3-point MACE: hazard ratio vs placebo (Antiplatelet drugs No): 1.10 | 3-point MACE: patients with event/patients analyzed (Antiplatelet drugs No): 125/1102 | Key secondary kidney outcome: hazard ratio vs placebo (Antiplatelet drugs No): 1.25 | Key secondary kidney outcome: patients with event/patients analyzed (Antiplatelet drugs No): 131/1102 | Patients with event/patients analysed, hospitalised heart failure (Antiplatelet drugs No): 61/1102 | Hazard ratio for hospitalised heart failure (Antiplatelet drugs No): 0.94 | 3-point MACE: hazard ratio vs placebo (Antiplatelet drugs Yes): 0.99 | 3-point MACE: patients with event/patients analyzed (Antiplatelet drugs Yes): 309/2392 | Key secondary kidney outcome: hazard ratio vs placebo (Antiplatelet drugs Yes): 0.94 | Key secondary kidney outcome: patients with event/patients analyzed (Antiplatelet drugs Yes): 196/2392 | Patients with event/patients analysed, hospitalised heart failure (Antiplatelet drugs Yes): 148/2392 | Hazard ratio for hospitalised heart failure (Antiplatelet drugs Yes): 0.88 | Patients with event/patients analysed, hospitalised heart failure (Atrial fibrillation No): 154/3175 | Hazard ratio for hospitalised heart failure (Atrial fibrillation No): 0.86 | Patients with event/patients analysed, hospitalised heart failure (Atrial fibrillation Yes): 55/319 | Hazard ratio for hospitalised heart failure (Atrial fibrillation Yes): 1.06 | 3-point MACE: hazard ratio vs placebo (Beta blockers No): 0.87 | 3-point MACE: patients with event/patients analyzed (Beta blockers No): 134/1414 | Key secondary kidney outcome: hazard ratio vs placebo (Beta blockers No): 1.14 | Key secondary kidney outcome: patients with event/patients analyzed (Beta blockers No): 161/1414 | Patients with event/patients analysed, hospitalised heart failure (Beta blockers No): 55/1414 | Hazard ratio for hospitalised heart failure (Beta blockers No): 0.95 | 3-point MACE: hazard ratio vs placebo (Beta blockers Yes): 1.11 | 3-point MACE: patients with event/patients analyzed (Beta blockers Yes): 300/2080 | Key secondary kidney outcome: hazard ratio vs placebo (Beta blockers Yes): 0.97 | Key secondary kidney outcome: patients with event/patients analyzed (Beta blockers Yes): 166/2080 | Patients with event/patients analysed, hospitalised heart failure (Beta blockers Yes): 154/2080 | Hazard ratio for hospitalised heart failure (Beta blockers Yes): 0.88 | Patients with event/patients analysed, hospitalised heart failure [10]: 84/1750 | Hazard ratio for hospitalised heart failure [10]: 0.68 | Patients with event/patients analysed, hospitalised heart failure [11]: 164/3017 | Hazard ratio for hospitalised heart failure [11]: 0.84 | Patients with event/patients analysed, hospitalised heart failure [12]: 125/1744 | Hazard ratio for hospitalised heart failure [12]: 1.15 | Patients with event/patients analysed, hospitalised heart failure [13]: 45/477 | Hazard ratio for hospitalised heart failure [13]: 1.24 | 3-point MACE: hazard ratio vs placebo (Body mass index <30 kg/m^2): 0.98 | 3-point MACE: patients with event/patients analyzed (Body mass index <30 kg/m^2): 191/1516 | Key secondary kidney outcome: hazard ratio vs placebo (Body mass index <30 kg/m^2): 1.14 | Key secondary kidney outcome: patients with event/patients analyzed (Body mass index <30 kg/m^2): 162/1516 | Patients with event/patients analysed, hospitalised heart failure (Body mass index <30 kg/m^2): 78/1516 | Hazard ratio for hospitalised heart failure (Body mass index <30 kg/m^2): 0.98
